Results from patent US8952024B2, “Herbicidal pyrimidone derivatives” (E I du Pont de Nemours and Company, priority 2009, dated 2015).

Key:
Experiment in all cases: Test B pre-/postemergence plant response
Type in all cases: in vivo
Settings in all cases: Postemergence
[1] = tested on: Italian ryegrass (Lolium multiflorum)
Outline: (§1)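 Greenhouse herbicide screen. Pre- and postemergence (1- to 4-leaf) spray of compound in solvent/surfactant mixture; loam–sand soil for pre, peat/vermiculite medium for post. Visual control rating 0–100 at 13 to 15 days after treatment.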

[2] = tested on: downy bromegrass (Bromus tectorum)
Outline: as §1

[3] = tested on: green foxtail (Setaria viridis)
Outline: as §1

[4] = tested on: Surinam grass (Brachiaria decumbens)
Outline: as §1

[5] = tested on: wheat (Triticum aestivum)
Outline: as §1

[6] = tested on: yellow nutsedge (Cyperus esculentus)
Outline: as §1

[7] = tested on: pigweed (Amaranthus retroflexus)
Outline: as §1

[8] = tested on: ragweed (common ragweed, Ambrosia elatior)
Outline: as §1

[9] = tested on: velvetleaf (Abutilon theophrasti)
Outline: as §1

[10] = tested on: lambsquarters (Chenopodium album)
Outline: as §1

[11] = tested on: goosegrass (Eleusine indica)
Outline: as §1

[12] = tested on: large crabgrass (Digitaria sanguinalis)
Outline: as §1

[13] = tested on: woolly cupgrass (Eriochloa villosa)
Outline: as §1

[14] = 31 g ai/ha, 0 to 100 scale (0 no effect, 100 complete control)
[15] = 62 g ai/ha, scale 0 to 100 (0 no effect, 100 complete control)
[16] = 250 g ai/ha, scale 0 to 100 (0 no effect, 100 complete control), 13 to 15 days
[17] = 125 g ai/ha, scale 0 to 100 (0 no effect, 100 complete control)
[18] = 125 g ai/ha, scale 0 (no effect) to 100 (complete control), 13 to 15 days

COCCn1c(-c2cccc(C)c2)ncc(C(=O)C2=C(O)C3CCC(C3)C2=O)c1=O (stereo not drawn) [Compound 233]
98: Plant response rating, Pigweed [7, 15] | Plant response rating, Ragweed [8, 16] | Plant response rating, Lambsquarters [10, 14] | Plant response rating, Lambsquarters [10, 15] | Plant response rating, Goosegrass [11, 17] | Plant response rating, Goosegrass [11, 16] | Plant response rating, Crabgrass, Large [12, 17]
5: Plant response rating, Nutsedge, Yellow [6, 15]
45: Plant response rating, Ryegrass, Italian [1, 15]
10: Plant response rating, Wheat [5, 14]
85: Plant response rating, Foxtail, Green [3, 14] | Plant response rating, Surinam Grass [4, 15] | Plant response rating, Pigweed [7, 14] | Plant response rating, Ragweed [8, 15] | Plant response rating, Velvetleaf [9, 15] | Plant response rating, Goosegrass [11, 14] | Plant response rating, Cupgrass, Woolly [13, 15]
95: Plant response rating, Foxtail, Green [3, 17] | Plant response rating, Goosegrass [11, 15]
50: Plant response rating, Bromegrass, Downy [2, 17]
100: Plant response rating, Foxtail, Green [3, 16] | Plant response rating, Surinam Grass [4, 16] | Plant response rating, Velvetleaf [9, 16] | Plant response rating, Lambsquarters [10, 17] | Plant response rating, Lambsquarters [10, 16] | Plant response rating, Crabgrass, Large [12, 16] | Plant response rating, Cupgrass, Woolly [13, 17] | Plant response rating, Cupgrass, Woolly [13, 16]
80: Plant response rating, Surinam Grass [4, 14] | Plant response rating, Ragweed [8, 14] | Plant response rating, Velvetleaf [9, 14] | Plant response rating, Crabgrass, Large [12, 14] | Plant response rating, Cupgrass, Woolly [13, 14]
40: Plant response rating, Bromegrass, Downy [2, 14] | Plant response rating, Bromegrass, Downy [2, 15]
30: Plant response rating, Ryegrass, Italian [1, 14] | Plant response rating, Wheat [5, 15]
25: Plant response rating, Nutsedge, Yellow [6, 17] | Plant response rating, Nutsedge, Yellow [6, 16]
60: Plant response rating, Ryegrass, Italian [1, 16] | Plant response rating, Bromegrass, Downy [2, 16]
65: Plant response rating, Wheat [5, 16]
90: Plant response rating, Foxtail, Green [3, 15] | Plant response rating, Crabgrass, Large [12, 15]
0: Plant response rating, Nutsedge, Yellow [6, 14]

COCCn1c(-c2cccc(F)c2)ncc(C(=O)C2=C(O)C3CCC(C3)C2=O)c1=O (stereo not drawn) [Compound 235]
100: Plant response rating, Surinam Grass [4, 16] | Plant response rating, Pigweed [7, 14] | Plant response rating, Pigweed [7, 15] | Plant response rating, Pigweed [7, 16] | Plant response rating, Ragweed [8, 15] | Plant response rating, Ragweed [8, 16] | Plant response rating, Velvetleaf [9, 15] | Plant response rating, Velvetleaf [9, 16] | Plant response rating, Lambsquarters [10, 15] | Plant response rating, Lambsquarters [10, 17] | Plant response rating, Lambsquarters [10, 16] | Plant response rating, Goosegrass [11, 16] | Plant response rating, Crabgrass, Large [12, 16] | Plant response rating, Cupgrass, Woolly [13, 15] | Plant response rating, Cupgrass, Woolly [13, 17] | Plant response rating, Cupgrass, Woolly [13, 16]
45: Plant response rating, Wheat [5, 14] | Plant response rating, Nutsedge, Yellow [6, 14] | Plant response rating, Nutsedge, Yellow [6, 15]
85: Plant response rating, Bromegrass, Downy [2, 16]
50: Plant response rating, Bromegrass, Downy [2, 17]
90: Plant response rating, Foxtail, Green [3, 14] | Plant response rating, Foxtail, Green [3, 15] | Plant response rating, Surinam Grass [4, 15]
95: Plant response rating, Foxtail, Green [3, 17] | Plant response rating, Velvetleaf [9, 14] | Plant response rating, Goosegrass [11, 14] | Plant response rating, Cupgrass, Woolly [13, 14]
60: Plant response rating, Ryegrass, Italian [1, 16] | Plant response rating, Nutsedge, Yellow [6, 16]
98: Plant response rating, Foxtail, Green [3, 16] | Plant response rating, Ragweed [8, 14] | Plant response rating, Lambsquarters [10, 14] | Plant response rating, Goosegrass [11, 15] | Plant response rating, Goosegrass [11, 17] | Plant response rating, Crabgrass, Large [12, 14] | Plant response rating, Crabgrass, Large [12, 15] | Plant response rating, Crabgrass, Large [12, 17]
30: Plant response rating, Ryegrass, Italian [1, 14] | Plant response rating, Ryegrass, Italian [1, 15] | Plant response rating, Bromegrass, Downy [2, 15]
10: Plant response rating, Bromegrass, Downy [2, 14]
55: Plant response rating, Nutsedge, Yellow [6, 17]
80: Plant response rating, Surinam Grass [4, 14] | Plant response rating, Wheat [5, 15] | Plant response rating, Wheat [5, 16]

CCCCn1c(-c2cccc(F)c2)ncc(C(=O)C2=C(O)C3CCC(C3)C2=O)c1=O (stereo not drawn) [Compound 237]
100: Plant response rating, Surinam Grass [4, 18] | Plant response rating, Surinam Grass [4, 16] | Plant response rating, Pigweed [7, 18] | Plant response rating, Pigweed [7, 16] | Plant response rating, Ragweed [8, 18] | Plant response rating, Ragweed [8, 16] | Plant response rating, Velvetleaf [9, 18] | Plant response rating, Velvetleaf [9, 16] | Plant response rating, Lambsquarters [10, 15] | Plant response rating, Lambsquarters [10, 18] | Plant response rating, Lambsquarters [10, 16] | Plant response rating, Crabgrass, Large [12, 18] | Plant response rating, Crabgrass, Large [12, 16] | Plant response rating, Cupgrass, Woolly [13, 14] | Plant response rating, Cupgrass, Woolly [13, 15] | Plant response rating, Cupgrass, Woolly [13, 18] | Plant response rating, Cupgrass, Woolly [13, 16]
70: Plant response rating, Wheat [5, 15]
95: Plant response rating, Bromegrass, Downy [2, 16] | Plant response rating, Foxtail, Green [3, 18] | Plant response rating, Foxtail, Green [3, 16] | Plant response rating, Ragweed [8, 14] | Plant response rating, Lambsquarters [10, 14] | Plant response rating, Goosegrass [11, 14] | Plant response rating, Crabgrass, Large [12, 14]
85: Plant response rating, Surinam Grass [4, 14] | Plant response rating, Wheat [5, 18] | Plant response rating, Wheat [5, 16] | Plant response rating, Velvetleaf [9, 14]
90: Plant response rating, Bromegrass, Downy [2, 18] | Plant response rating, Foxtail, Green [3, 15] | Plant response rating, Velvetleaf [9, 15]
45: Plant response rating, Bromegrass, Downy [2, 15] | Plant response rating, Nutsedge, Yellow [6, 18] | Plant response rating, Nutsedge, Yellow [6, 16]
35: Plant response rating, Nutsedge, Yellow [6, 15]
30: Plant response rating, Bromegrass, Downy [2, 14]
20: Plant response rating, Nutsedge, Yellow [6, 14]
80: Plant response rating, Foxtail, Green [3, 14] | Plant response rating, Pigweed [7, 14]
98: Plant response rating, Surinam Grass [4, 15] | Plant response rating, Pigweed [7, 15] | Plant response rating, Ragweed [8, 15] | Plant response rating, Goosegrass [11, 15] | Plant response rating, Goosegrass [11, 18] | Plant response rating, Goosegrass [11, 16] | Plant response rating, Crabgrass, Large [12, 15]
60: Plant response rating, Ryegrass, Italian [1, 18] | Plant response rating, Ryegrass, Italian [1, 16]
50: Plant response rating, Ryegrass, Italian [1, 14] | Plant response rating, Ryegrass, Italian [1, 15] | Plant response rating, Wheat [5, 14]

COCCCn1c(-c2cccc(F)c2)ncc(C(=O)C2=C(O)C3CCC(C3)C2=O)c1=O (stereo not drawn) [Compound 238]
25: Plant response rating, Ryegrass, Italian [1, 15] | Plant response rating, Ryegrass, Italian [1, 18] | Plant response rating, Nutsedge, Yellow [6, 16]
40: Plant response rating, Bromegrass, Downy [2, 15] | Plant response rating, Wheat [5, 14]
98: Plant response rating, Foxtail, Green [3, 18] | Plant response rating, Foxtail, Green [3, 16] | Plant response rating, Goosegrass [11, 15] | Plant response rating, Goosegrass [11, 18] | Plant response rating, Goosegrass [11, 16] | Plant response rating, Crabgrass, Large [12, 15] | Plant response rating, Crabgrass, Large [12, 18] | Plant response rating, Crabgrass, Large [12, 16]
80: Plant response rating, Wheat [5, 18] | Plant response rating, Wheat [5, 16] | Plant response rating, Velvetleaf [9, 14]
50: Plant response rating, Bromegrass, Downy [2, 18]
20: Plant response rating, Ryegrass, Italian [1, 14] | Plant response rating, Nutsedge, Yellow [6, 14] | Plant response rating, Nutsedge, Yellow [6, 15] | Plant response rating, Nutsedge, Yellow [6, 18]
70: Plant response rating, Ryegrass, Italian [1, 16]
10: Plant response rating, Bromegrass, Downy [2, 14]
95: Plant response rating, Foxtail, Green [3, 15] | Plant response rating, Surinam Grass [4, 14] | Plant response rating, Goosegrass [11, 14] | Plant response rating, Crabgrass, Large [12, 14] | Plant response rating, Cupgrass, Woolly [13, 14]
100: Plant response rating, Surinam Grass [4, 15] | Plant response rating, Surinam Grass [4, 18] | Plant response rating, Surinam Grass [4, 16] | Plant response rating, Pigweed [7, 14] | Plant response rating, Pigweed [7, 15] | Plant response rating, Pigweed [7, 18] | Plant response rating, Pigweed [7, 16] | Plant response rating, Ragweed [8, 14] | Plant response rating, Ragweed [8, 15] | Plant response rating, Ragweed [8, 18] | Plant response rating, Ragweed [8, 16] | Plant response rating, Velvetleaf [9, 18] | Plant response rating, Velvetleaf [9, 16] | Plant response rating, Lambsquarters [10, 14] | Plant response rating, Lambsquarters [10, 15] | Plant response rating, Lambsquarters [10, 18] | Plant response rating, Lambsquarters [10, 16] | Plant response rating, Cupgrass, Woolly [13, 15] | Plant response rating, Cupgrass, Woolly [13, 18] | Plant response rating, Cupgrass, Woolly [13, 16]
85: Plant response rating, Bromegrass, Downy [2, 16] | Plant response rating, Foxtail, Green [3, 14]
90: Plant response rating, Velvetleaf [9, 15]
45: Plant response rating, Wheat [5, 15]
